Measurements: patent US9408856B2, “Topical steroidal formulations” (Temple University—Of The Commonwealth System of Higher …, priority 2008, dated 2016)
“Also recorded” adds a separate entry of the source.

How the values were obtained:
[1] = tested on: dexamethasone-induced thymic and splenic atrophy; assay: Dexamethasone-induced thymic and splenic atrophy in mice; type: in vivo, CD-1 mice; settings: for protection against DEX-induced thymic and splenic atrophy: CD-1 mice
Protocol: Administration of dehydroepiandrosterone (DHEA, 60 mg/kg, s.c.) for three days partially reverse thymic and splenic atrophy induced by a single injection of dexamethasone (1.6 mg/mouse). In this experiment, the efficacy of either 10 mg/kg or 20 mg/kg DHEA administered s.c. versus the effect of 10 mg/kg or 20 mg/kg fluasterone was investigated.
5% Cremophor (polyethoxylated castor oil; Sigma Chemicals)-95% saline vehicle was prepared using 95 mL of sterile 0.9% NaCl (filtered through sterile 0.22 micron filter) and 5 mL of Cremophor. The Cremophor was dissolved by swirling for approximately 5 minutes.
Dexamethasone solutions were prepared by dissolving dexamethasone (Sigma Chemicals) in absolute ethanol. For example, 71.9 mg of dexamethasone was dissolved in 2.9 mL of absolute ethanol. In order to prevent precipitation, the solution was kept on a hotplate between injections.
For the 10 mg/kg suspension, 25.7 mg of DHEA was weighed out, transferred to a glass scintillation vial, and 10.3 mL of the Cremophor-saline vehicle was added. The DHEA suspension was homogenized using a Tissumizer at 80% power for 30 sec. The Tissumizer was rinsed with 70% ethanol prior to homogenization. After the 10 mg/kg DHEA suspension was homogenized the probe was rinsed 2× with 50 mL of absolute ethanol, then with 50 mL of 70% ethanol, and then dried with sterile gauze. For the 20 mg/kg DHEA suspension, 50.9 mg DHEA was suspended in 10.2 mL of Cremophor-saline vehicle.
19.4 mg of fluasterone was weighed out and transferred to a glass scintillation vial. 7.8 mL of Cremophor-saline vehicle was added to the vial and the contents of the vial were homogenized with a Tissumizer as described previously. Prior to preparing the 20 mg/kg fluasterone, the probe was rinsed 2× with 50 mL of absolute ethanol and 1× with 50 mL of 70% ethanol. For the 20 mg/kg suspension, 47.0 mg was weighed out and transferred to a glass scintillation vial. 9.4 mL of Cremophor-saline vehicle was added to the vial and the contents of the vial were homogenized with a Tissumizer as described above.
Female CD-1 mice, 43-45 days old, were obtained from Charles River Laboratories. The mice were housed 5 per cage in plastic shoebox cages with ad libitum access to Purina chow 5015 and water in the Pharmacy CAF with 12 hr of alternating light and darkness.
Prior to the experiment the mice were weighed, separated into 6 groups containing 5 mice each and treated as follows:
Mice were treated s.c. with 0.1 mL of 5% Cremophor-95% saline for three days. On the third day, the mice were also treated s.c. with 1.6 mg of dexamethasone dissolved in 0.06 mL of absolute. ethanol.
Mice were treated s.c. with 0.25 mg of DHEA suspended in 0.1 mL of 5% Cremophor-95% saline for three days. On the third day, the mice were also treated s.c. with 1.6 mg of dexamethasone dissolved in 0.06 mL of absolute ethanol.
Mice were treated s.c. with 0.5 mg of DHEA suspended in 0.1 mL of 5% Cremophor-95% saline for three days. On the third day, the mice were also treated s.c. with 1.6 mg of dexamethasone dissolved in 0.06 mL of absolute ethanol.
Mice were treated s.c. with 0.25 mg of fluasterone suspended in 0.1 mL of 5% Cremophor-95% saline for three days. On the third day, the mice were also treated s.c. with 1.6 mg of dexamethasone dissolved in 0.06 mL of absolute ethanol.
Mice were treated s.c. with 0.5 mg of fluasterone suspended in 0.1 mL of 5% Cremophor-95% saline for three days. On the third day, the mice were also treated s.c. with 1.6 mg of dexamethasone dissolved in 0.06 mL of absolute ethanol.
All s.c. injections were made in the nape. All mice were lightly anesthetized while the s.c. injections were done.
Twenty-four hours after dexamethasone treatment, the mice were euthanized by an overdose of isoflurane. The spleen and thymus were removed, cleaned of any adventitia, rinsed, blotted on filter paper, and weighed. […]

[2] = tested on: dexamethasone-induced thymic and splenic atrophy; settings: C3H/HeN mice; 60 mg/kg s.c. 3 days; single DEX dose 1.6 mg; Blauer et al. 1991; cited from earlier work
[3] = Table 12, 10 mg/kg s.c. 3 days + dexamethasone 1.6 mg s.c. on day 3, 24 h after dexamethasone
[4] = Table 12, 20 mg/kg s.c. 3 days + dexamethasone 1.6 mg s.c. on day 3, 24 h after dexamethasone
[5] = Table 14, micronized steroid 20 mg/kg + dexamethasone
[6] = Table 14, micronized steroid 60 mg/kg + dexamethasone

For `C[C@]12CC[C@H](O)CC1=CC[C@@H]1[C@@H]2CC[C@]2(C)C(=O)CC[C@@H]12` [DHEA, dehydroepiandrosterone, reference compound], the “protection against DEX-induced thymic and splenic atrophy” value (“protection” for short) ([1]; 10 mg/kg) was “inactive”, the “protection” value ([1]; 20 mg/kg) was “no apparent protection; also recorded: inactive” and the “protection” value ([1]; 60 mg/kg) was “significantly protected”. The “Body Weight” value [1, 3] was 23.7 ± 1.0, the Spleen wt [1, 3] was 46.4 ± 3.7 and the “Spleen wt/BW” value [1, 3] was 2.0 ± 0.2. The Thymus wt [1, 3] was 31.7 ± 2.6, the “Thymus wt/BW” value [1, 3] was 1.3 ± 0.2 and the “Body Weight” value [1, 4] was 24.5 ± 2.1. The Spleen wt [1, 4] was 51.4 ± 2.2, the “Spleen wt/BW” value [1, 4] was 2.1 ± 0.2 and the Thymus wt [1, 4] was 36.6 ± 5.2. For the same molecule, the “Thymus wt/BW” value [1, 4] was 1.5 ± 0.2, the “Body Weight” value [1, 5] was 27.4 ± 4.0 and the Spleen wt [1, 5] was 56.8 ± 8.1. For the same molecule, the “Spleen wt/BW” value [1, 5] was 2.1 ± 0.1, the Thymus wt [1, 5] was 39.3 ± 4.1 and the “Thymus wt/BW” value [1, 5] was 1.4 ± 0.1. The “Body Weight” value [1, 6] was 27.0 ± 3.1, the Spleen wt [1, 6] was 79.9 ± 16.0 and the “Spleen wt/BW” value [1, 6] was 3.0 ± 0.4. The Thymus wt [1, 6] was 63.2 ± 7.8, the “Thymus wt/BW” value [1, 6] was 2.3 ± 0.2 and the “Approximate Potency Compared to Fluasterone in Protecting Against DEX-induced Thymic and Splenic Involution” value ([1]; fluasterone = 1, mice) was “about ⅙”. For the same molecule, the “effect on DEX-induced thymic and splenic atrophy” value [2] was “significantly reduces”.
